In the NIST ThermoML archive (doi:10.1016/j.fluid.2017.09.019):
± gives the expanded uncertainty stated by the source.

Assays:
[1] = Liquid; for viscosity / mass density: 101 kPa; for viscosity: Concentric cylinders viscometry; for mass density: Vibrating tube method; for vapor or sublimation pressure: Closed cell (Static) method
[2] = wn = mass fraction of the nth substance listed; settings: 101 kPa, Liquid; for viscosity: Concentric cylinders viscometry; for mass density: Vibrating tube method

CC(O)CN(C)C (stereo not drawn) [1-(dimethylamino)-2-propanol]
[1]
Settings | mass density [kg/m3] | vapor or sublimation pressure [kPa] | viscosity [mPa·s]
298.15 K | 845.4 ± 2.4 | – | 1.332 ± 0.1
298.49 K | – | 4.13 ± 2 | –
303.15 K | 840.3 ± 2.4 | – | 1.183 ± 0.1
303.88 K | – | 6.59 ± 2 | –
308.15 K | 835.5 ± 2.4 | – | 1.059 ± 0.1
308.43 K | – | 8.03 ± 2 | –
313.15 K | 830.7 ± 2.4 | – | 0.955 ± 0.1
313.34 K | – | 10.34 ± 2 | –
318.15 K | 825.8 ± 2.4 | – | 0.866 ± 0.1
318.26 K | – | 12.51 ± 2 | –
323.15 K | 820.9 ± 2.4 | – | 0.788 ± 0.1
323.6 K | – | 15.84 ± 2 | –
328.15 K | 816 ± 2.4 | – | 0.72 ± 0.1
328.26 K | – | 18.73 ± 2 | –
333.04 K | – | 23.06 ± 2 | –
333.15 K | 811.1 ± 2.4 | – | 0.662 ± 0.1

CN(CCO)CCO [N-methyldiethanolamine]
[1]
Settings | mass density [kg/m3] | viscosity [mPa·s]
298.15 K | 1036.9 ± 2.4 | 77.29 ± 0.88
308.15 K | 1029.8 ± 2.4 | 44.99 ± 0.51
323.15 K | 1018.3 ± 2.4 | 22.6 ± 0.34

CN(CCO)CCO [N-methyldiethanolamine] + O
[2]
Settings | mass density, 298.15 K [kg/m3] | mass density, 308.15 K [kg/m3] | mass density, 323.15 K [kg/m3] | viscosity, 298.15 K [mPa·s] | viscosity, 308.15 K [mPa·s] | viscosity, 323.15 K [mPa·s]
w1 = 0.2 | 1014.8 ± 2.4 | 1010.6 ± 2.4 | 1002.9 ± 2.4 | 1.932 ± 0.1 | 1.51 ± 0.1 | 1.061 ± 0.1
w1 = 0.3 | 1025.2 ± 2.4 | 1021.1 ± 2.4 | 1013.2 ± 2.4 | 3.081 ± 0.1 | 2.263 ± 0.1 | 1.521 ± 0.1
w1 = 1 | 1036.9 ± 2.4 | 1029.8 ± 2.4 | 1018.3 ± 2.4 | 77.29 ± 0.88 | 44.99 ± 0.51 | 22.6 ± 0.34
